# Patent US20230027066A1 (Urovant Sciences GmbH, priority 2019, published 2023)
# Test system: men and women with overactive bladder
# Assay: Phase 3 study of vibegron 75 mg vs placebo and tolterodine ER 4 mg, 12 weeks, efficacy (voiding and urine volume diary)
# Assay type: in vivo, human
# Details: for Daily Urgency Episodes: Reduction from Baseline at Week 12, LS Mean: vibegron 75 mg, tolterodine ER 4 mg; for Patients with 100% Reduction in UUI from Baseline to Week 12, Unadjusted n (%) / Patients with at Least 75% Reduction in UUI from Baseline to Week 12, Unadjusted n (%) / Patients with 100% Reduction in UUI from Baseline to Week 12, Adjusted n (%) / Patients with at Least 75% Reduction in UUI from Baseline to Week 12, Adjusted n (%): FAS-I; for Patients with 100% Reduction in UUI from Baseline to Week 12, Adjusted n (%) / Patients with at Least 75% Reduction in UUI from Baseline to Week 12, Adjusted n (%): MI for missing values; for 75% UUI responders, Active-Placebo CMH Difference / 100% UUI responders, Active-Placebo CMH Difference: stratified by sex; for Urgency, Change from Baseline LS Mean / Urgency, LS Mean Difference active - Placebo: baseline to Week 12
# Description: Enrollment of patients included individuals with OAB Wet (those with UUI, the involuntary loss of urine accompanied by urgency) and OAB Dry (those without UUI). A total of 1,518 patients were randomized across 215 study sites into one of three groups for a 12-week treatment period.
# The study consisted of a Screening Period (1 to 5 weeks), a single-blind Run-in Period (2 weeks), a randomized double-blind Treatment Period (12 weeks), and a Follow-up Period (4 weeks).
# Tolterodine ER 4 mg was the active control. […] Between the Baseline and Week 12 Visits, patients had study assessments at Week 4 and Week 8.
# The Patient Voiding Diary was used by participants (via the eDiary or paper Diary) to record the frequency of daily OAB symptoms including all micturitions, urgency, incontinence, and main reason for incontinence by selecting the respective box for each symptom occurring during the course of a given day and night.
# Urine volume data were collected separately by patients using the Urine Volume component of the eDiary, or the paper Urine Volume Chart. The Urine Volume Chart is a tool used in clinical practice and clinical investigation to assess voiding functions over a 24-hour period and is regarded as a useful instrument in the investigation of patients with voiding symptoms. Urine volume may be collected during any one (1) of the 7 Diary Days prior to the visit, and it should be recorded for ˜24 hours starting from the time the patient gets up for the day and continues until the time the patient gets up for the day on the next day.
# For the purpose of this study, the number of micturitions was defined as the number of times a patient has voided in the toilet as indicated on the Patient Voiding Diary. Average daily micturitions were calculated using the daily entries in the Patient Voiding Diary, which was completed over the 7 days prior to each study visit. Average daily number of micturitions were calculated as the total number of micturitions that occurred on a Complete Diary Day divided by the number of Complete Diary Days in the Patient Voiding Diary. A complete diary day required confirmation by the patient in the Patient Voiding Diary that all voids and leakages had been recorded for the diary day. Baseline was defined as the average number of micturitions occurring during the last evaluable diary prior to the Baseline Visit.
# The number of UUI episodes was defined as the number of times a patient had checked “urge” as the reason for accidental urine leakage. Average daily UUI episodes at each study visit were calculated in the same manner as described above for the micturition endpoint. The UUI endpoint were analyzed using only OAB Wet patients.
# For the analysis of the co-primary endpoints (change from baseline in average number of daily micturitions at Week 12 and change from baseline in average number of daily urge urinary incontinence episodes at Week 12, and placebo adjustment of each), a mixed model for repeated measure (MMRM) with restricted maximum likelihood estimation was used. This model corrects for dropout and accounts for the fact that measurements taken on the same patient over time tend to be correlated by using all available information on patients within the same covariate set to derive an estimate of the treatment effect for a dropout-free population. The analysis model for each efficacy endpoint includes terms for treatment, visit, OAB Type (Wet vs Dry), Sex (Female vs Male), Region (US vs Rest of World), baseline score, and interaction of visit by treatment.
# Primary inferences were drawn from treatment differences for the changes from baseline derived from the MMRM models at Week 12. As part of secondary objectives, the treatment differences for each post baseline visit were also derived using the same MMRM model. […]
# [1] = 50% Total Incontinence Responders, Week 2
# [2] = 50% Total Incontinence Responders, Week 4
# [3] = 50% Total Incontinence Responders, Week 8
# [4] = 50% Total Incontinence Responders, Week 12
# [5] = Cox model with sex as covariate, >1 = more treated subjects attain reduction
# [6] = Dry population, baseline to Week 2
smiles,measurement,setting,value
"Cc1ccc(O)c([C@H](CCN(C(C)C)C(C)C)c2ccccc2)c1 [Tolterodine ER, tolterodine, reference compound]","Average Volume Voided per Micturition, Mean (SD)",[1],167.1 (75.27)
same,"Average daily number of urgency episodes, Mean (SD)",[1],5.68 (3.690)
same,"Change from Baseline in Average Daily Number of Urgency Episodes, LS Mean (SE)",[1],−2.1 (0.17)
same,"Change from Baseline in Average Volume Voided per Micturition, LS Mean",[1],16.9 (4.12)
same,"Change from baseline in Percent Dry Diary Days, LS Mean",[1],23.9 (2.33) Percent
same,"Percent Dry Diary Days, Mean (SD)",[1],28.44 (35.758) Percent
same,"Average Volume Voided per Micturition, Mean (SD)",[2],171.3 (73.88)
same,"Average daily number of urgency episodes, Mean (SD)",[2],5.18 (3.663)
same,"Change from Baseline in Average Daily Number of Urgency Episodes, LS Mean (SE)",[2],−2.6 (0.18)
same,"Change from Baseline in Average Volume Voided per Micturition, LS Mean",[2],16.3 (4.38)
same,"Change from baseline in Percent Dry Diary Days, LS Mean",[2],32.6 (2.69) Percent
same,"Percent Dry Diary Days, Mean (SD)",[2],36.82 (40.267) Percent
same,"Average Volume Voided per Micturition, Mean (SD)",[3],177.7 (76.78)
same,"Average daily number of urgency episodes, Mean (SD)",[3],4.68 (3.707)
same,"Change from Baseline in Average Daily Number of Urgency Episodes, LS Mean (SE)",[3],−3.1 (0.21)
same,"Change from Baseline in Average Volume Voided per Micturition, LS Mean",[3],24.8 (4.56)
same,"Change from baseline in Percent Dry Diary Days, LS Mean",[3],40.0 (2.76) Percent
same,"Percent Dry Diary Days, Mean (SD)",[3],44.86 (40.529) Percent
same,"Average Volume Voided per Micturition, Mean (SD)",[4],175.4 (77.58)
same,"Average daily number of urgency episodes, Mean (SD)",[4],4.02 (3.539)
same,"Change from Baseline in Average Daily Number of Urgency Episodes, LS Mean (SE)",[4],−3.6 (0.22)
same,"Change from Baseline in Average Volume Voided per Micturition, LS Mean",[4],21.1 (4.74)
same,"Change from baseline in Percent Dry Diary Days, LS Mean",[4],49.7 (2.68) Percent
same,"Percent Dry Diary Days, Mean (SD)",[4],55.43 (37.734) Percent
same,"Average Volume Voided per Micturition, Mean (SD)","75% UUI Responders, Week 2",170.6 (77.20)
same,"Average daily number of urgency episodes, Mean (SD)","75% UUI Responders, Week 2",5.37 (3.577)
same,"Change from Baseline in Average Volume Voided per Micturition, LS Mean","75% UUI Responders, Week 2",17.5 (4.96)
same,"Change from baseline in average daily number of urgency episodes, LS Mean","75% UUI Responders, Week 2",−2.3 (0.21)
same,"Average Volume Voided per Micturition, Mean (SD)","75% UUI Responders, Week 4",174.8 (73.04)
same,"Average daily number of urgency episodes, Mean (SD)","75% UUI Responders, Week 4",4.93 (3.675)
same,"Change from Baseline in Average Volume Voided per Micturition, LS Mean","75% UUI Responders, Week 4",16.2 (5.27)
same,"Change from baseline in average daily number of urgency episodes, LS Mean","75% UUI Responders, Week 4",−2.8 (0.23)
same,"Average Volume Voided per Micturition, Mean (SD)","75% UUI Responders, Week 8",182.1 (77.27)
same,"Average daily number of urgency episodes, Mean (SD)","75% UUI Responders, Week 8",4.42 (3.677)
same,"Change from Baseline in Average Volume Voided per Micturition, LS Mean","75% UUI Responders, Week 8",26.1 (5.51)
same,"Change from baseline in average daily number of urgency episodes, LS Mean","75% UUI Responders, Week 8",−3.3 (0.25)
same,"Average Volume Voided per Micturition, Mean (SD)","75% UUI Responders, Week 12",177.3 (77.70)
same,"Average daily number of urgency episodes, Mean (SD)","75% UUI Responders, Week 12",3.67 (3.542)
same,"Change from Baseline in Average Volume Voided per Micturition, LS Mean","75% UUI Responders, Week 12",19.1 (5.83)
same,"Change from baseline in average daily number of urgency episodes, LS Mean","75% UUI Responders, Week 12",−3.9 (0.27)
same,"Daily Urgency Episodes: Reduction from Baseline at Week 12, LS Mean",Age ≥65 years,−2.1
same,"Daily Urgency Episodes: Reduction from Baseline at Week 12, LS Mean",Age ≥75 years,−2.4
same,"Daily Urgency Episodes: Reduction from Baseline at Week 12, LS Mean",All patients,−2.5
same,"Patients with 100% Reduction in UUI from Baseline to Week 12, Unadjusted n (%)",Baseline Number of UUI <3,62 (33.2) n (%)
same,"Patients with at Least 75% Reduction in UUI from Baseline to Week 12, Unadjusted n (%)",Baseline Number of UUI <3,98 (52.4) n (%)
same,"Patients with 100% Reduction in UUI from Baseline to Week 12, Adjusted n (%)",Baseline Number of UUI <3,54 (29.0) n (%)
same,"Patients with at Least 75% Reduction in UUI from Baseline to Week 12, Adjusted n (%)",Baseline Number of UUI <3,91 (48.4) n (%)
same,"75% UUI responders, Active-Placebo CMH Difference",Baseline Number of UUI <3,10.1
same,"100% UUI responders, Active-Placebo CMH Difference",Baseline Number of UUI <3,1.5
same,"Patients with 100% Reduction in UUI from Baseline to Week 12, Unadjusted n (%)",Baseline Number of UUI ≥3,23 (17.4) n (%)
same,"Patients with at Least 75% Reduction in UUI from Baseline to Week 12, Unadjusted n (%)",Baseline Number of UUI ≥3,54 (40.9) n (%)
same,"Patients with 100% Reduction in UUI from Baseline to Week 12, Adjusted n (%)",Baseline Number of UUI ≥3,13 (9.6) n (%)
same,"Patients with at Least 75% Reduction in UUI from Baseline to Week 12, Adjusted n (%)",Baseline Number of UUI ≥3,44 (33.7) n (%)
same,"75% UUI responders, Active-Placebo CMH Difference",Baseline Number of UUI ≥3,8.4
same,"100% UUI responders, Active-Placebo CMH Difference",Baseline Number of UUI ≥3,2.6
same,"Hazard Ratio, 50% reduction in urgency episodes, Compared to Placebo Using Proportional Hazards",[5],1.225
same,"Hazard Ratio, 100% reduction in UUI episodes, Compared to Placebo Using Proportional Hazards",[5],1.141
same,"Urgency, Change from Baseline LS Mean","Dry population, Age <65",−2.3 (57)
same,"Urgency, LS Mean Difference active - Placebo","Dry population, Age <65",−0.8
same,"Urgency, Change from Baseline LS Mean","Dry population, Age ≥65",−1.5 (35)
same,"Urgency, LS Mean Difference active - Placebo","Dry population, Age ≥65",0.2
same,"Average daily number of urgency episodes, Mean (SD)","Dry population, Week 2",6.87 (4.260)
same,"Change from baseline in average daily number of urgency episodes, LS Mean","Dry population, Week 2",−1.4 (0.27)
same,"Urgency episodes, Active - Placebo LS Mean Difference","Dry population, Week 2",−0.6 (0.37)
same,"Average daily number of urgency episodes, Mean (SD)","Dry population, Week 4",7.03 (4.865)
same,"Change from baseline in average daily number of urgency episodes, LS Mean","Dry population, Week 4",−1.6 (0.29)
same,"Urgency episodes, Active - Placebo LS Mean Difference","Dry population, Week 4",−0.7 (0.40)
same,"Average daily number of urgency episodes, Mean (SD)","Dry population, Week 8",6.25 (4.957)
same,"Change from baseline in average daily number of urgency episodes, LS Mean","Dry population, Week 8",−2.2 (0.34)
same,"Urgency episodes, Active - Placebo LS Mean Difference","Dry population, Week 8",−1.0 (0.46)
same,"Average daily number of urgency episodes, Mean (SD)","Dry population, Week 12",6.56 (5.480)
same,"Change from baseline in average daily number of urgency episodes, LS Mean","Dry population, Week 12",−2.0 (0.36)
same,"Urgency episodes, Active - Placebo LS Mean Difference","Dry population, Week 12",−0.4 (0.49)
same,"Patients with at Least 50% Reduction in Urgency Episodes, Adjusted (%)",[6],16.3%
same,"Patients with at Least 50% Reduction in Urgency Episodes, Adjusted n",[6],16
same,"Patients with at Least 50% Reduction in Urgency Episodes, Unadjusted (%)",[6],16.3%
same,"Patients with at Least 50% Reduction in Urgency Episodes, Unadjusted n",[6],16
